Data taken from the NIST ThermoML archive (doi:10.1016/j.jct.2004.06.008).

Assay: molar heat capacity at constant pressure
Settings: 101.33 kPa, Crystal, Vacuum adiabatic calorimetry

[Cu] [copper]
Settings | molar heat capacity at constant pressure [J/K/mol]
6.56 K | 0.0232
7.16 K | 0.0255
7.85 K | 0.0323
8.64 K | 0.04
9.55 K | 0.0534
10.51 K | 0.0663
11.42 K | 0.0839
12.43 K | 0.1121
13.56 K | 0.137
14.81 K | 0.1926
16.17 K | 0.2314
17.69 K | 0.304
19.34 K | 0.4106
20.19 K | 0.4727
21.13 K | 0.5555
21.94 K | 0.6242
23.08 K | 0.7448
23.76 K | 0.8181
25.79 K | 1.058
28.01 K | 1.37
30.46 K | 1.761
33.17 K | 2.259
36.05 K | 2.853
37.57 K | 3.173
39.01 K | 3.497
40.74 K | 3.898
44.1 K | 4.708
45.89 K | 5.146
47.52 K | 5.549
49.38 K | 6.025
52.99 K | 6.933
54.47 K | 7.281
56.65 K | 7.837
56.87 K | 7.882
59.76 K | 8.582
62.64 K | 9.272
66.47 K | 10.14
71.22 K | 11.16
75.97 K | 12.13
80.79 K | 13.04
85.65 K | 13.89
90.55 K | 14.68
95.49 K | 15.41
100.46 K | 16.08
105.45 K | 16.71
110.46 K | 17.28
115.49 K | 17.81
120.54 K | 18.3
125.61 K | 18.75
130.68 K | 19.16
134.74 K | 19.47
135.77 K | 19.54
139.84 K | 19.82
140.87 K | 19.89
144.94 K | 20.16
150.05 K | 20.46
155.17 K | 20.75
160.3 K | 21.02
165.43 K | 21.27
170.57 K | 21.5
175.7 K | 21.72
180.85 K | 21.92
186 K | 22.11
191.15 K | 22.28
193.33 K | 22.35
196.3 K | 22.45
198.48 K | 22.51
201.46 K | 22.6
203.64 K | 22.66
206.62 K | 22.74
208.8 K | 22.79
213.96 K | 22.93
219.13 K | 23.06
224.29 K | 23.19
229.45 K | 23.31
232.56 K | 23.38
234.62 K | 23.41
237.73 K | 23.49
239.79 K | 23.53
242.89 K | 23.59
248.06 K | 23.68
253.24 K | 23.77
258.41 K | 23.86
263.59 K | 23.95
268.77 K | 24.02
273.95 K | 24.09
279.13 K | 24.16
284.31 K | 24.23
289.49 K | 24.31
294.67 K | 24.38
297.38 K | 24.41
299.85 K | 24.44
302.55 K | 24.49
307.73 K | 24.55
312.92 K | 24.61
318.1 K | 24.67
323.28 K | 24.73
325.89 K | 24.75
328.47 K | 24.78
331.06 K | 24.8
336.25 K | 24.85
341.44 K | 24.91
346.62 K | 24.95
351.8 K | 24.99
356.99 K | 25.03
363.06 K | 25.07
368.04 K | 25.11
373.02 K | 25.17
378 K | 25.25
382.98 K | 25.25
387.96 K | 25.3
392.94 K | 25.35
397.62 K | 25.41
